Values of other authors as cited in patent US7220858B2, “Synthesis of hydrazine and chlorinated derivatives of bicyclic pyridazines” (Barbeau Pharma, Inc., priority 2003, dated 2007).
Like-named read-outs stand apart in the source and are kept apart here.

Tests used:
[1] = in the presence of oxygen and metal ions such as Cu+2, Fe+2, and Fe+3

In the case of `NNc1nncc2ccccc12` [Hydralazine, 1-hydrazinophthalazine], the oxidation [1] is given as “oxidizes rapidly”, the onset of action (vascular smooth muscle; given intravenously) is given as 10 to 20 min and the metabolism and excretion (vascular smooth muscle; in the body) is given as “extensively metabolized in the body to products that are excreted predominantly in the urine”. The duration of action (vascular smooth muscle; in vivo) was 3 to 4 h, the onset of action (vascular smooth muscle; in vivo) was 10 to 30 min and the “time to maximum hypotensive effect” value (vascular smooth muscle; in vivo) was 10 to 80 min.
